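A five-concentration, 48-hour dose response in 96-well plates underlies each endpoint, interpolated linearly between surrounding concentrations. GI50 marks 50% less growth.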 Active and inactive are the calls of the source. Rule as the data show it: active = GI50 up to about 1.1 µM and inactive = higher.
What was measured:
Test in all cases: NCI tumour cell line growth inhibition, 48 h
[1] = test system: A498
[2] = test system: A549
[3] = test system: CCRF-CEM
[4] = test system: EKVX
[5] = test system: HCT-15
[6] = test system: HOP-62
[7] = test system: HOP-92
[8] = test system: LXFL 529
[9] = test system: MCF7
[10] = test system: MDA-N
[11] = test system: Malme-3M
[12] = test system: NCI-H522
[13] = test system: OVCAR-4
[14] = test system: RXF 393
[15] = test system: SF-268
[16] = test system: SK-MEL-2
[17] = test system: SK-MEL-5
[18] = test system: SN12C
[19] = test system: U-251
[20] = test system: UACC-62

Structure (SMILES) | GI50 [1] | GI50 [2] | GI50 [3] | GI50 [4] | GI50 [5] [µM] | GI50 [6] | GI50 [7] | GI50 [8] | GI50 [9] | GI50 [10] | GI50 [11] | GI50 [12] | GI50 [13] | GI50 [14] | GI50 [15] | GI50 [16] | GI50 [17] | GI50 [18] | GI50 [19] | GI50 [20]
Cc1ccc(NC(=O)CCc2nnc3s/c(=C\C=C\c4ccccc4)c(=O)n23)cc1 | > 94.4 µM (inactive) | > 100 µM (inactive) | 27.8 µM (inactive) | > 100 µM (inactive) | > 100 | > 95.5 µM (inactive) | > 83 µM (inactive) | 60.7 µM (inactive) | > 71.4 µM (inactive) | > 79.1 µM (inactive) | > 100 µM (inactive) | 37.8 µM (inactive) | > 56.2 µM (inactive) | > 81.8 µM (inactive) | 59.3 µM (inactive) | 68.7 µM (inactive) | > 95.5 µM (inactive) | > 100 µM (inactive) | 53.3 µM (inactive) | 80.4 µM (inactive)
COc1cc(CC(C)N)ccc1O (stereo not given) | > 100 µM (inactive) | > 100 µM (inactive) | > 31.6 µM (inactive) | > 100 µM (inactive) | > 100 | > 100 µM (inactive) | > 85.9 µM (inactive) | > 100 µM (inactive) | > 100 µM (inactive) | > 100 µM (inactive) | > 100 µM (inactive) | > 100 µM (inactive) | > 100 µM (inactive) | > 100 µM (inactive) | > 100 µM (inactive) | > 100 µM (inactive) | > 100 µM (inactive) | > 100 µM (inactive) | > 100 µM (inactive) | > 100 µM (inactive)
CC(=O)OCC1OC(N2C(=O)C(=O)c3cc(C)ccc32)C(OC(C)=O)C(OC(C)=O)C1OC(C)=O (stereo not given) | > 100 µM (inactive) | > 100 µM (inactive) | 49.5 µM (inactive) | > 100 µM (inactive) | 52.8 | > 100 µM (inactive) | 51.5 µM (inactive) | > 100 µM (inactive) |  |  | > 100 µM (inactive) | 36.3 µM (inactive) | > 100 µM (inactive) | 39.8 µM (inactive) | 49.5 µM (inactive) | > 100 µM (inactive) | 58.7 µM (inactive) | 65.6 µM (inactive) | > 100 µM (inactive) | 37.4 µM (inactive)
CCOC(=O)CCC1(C(=O)OC)CCCC1=O (stereo not given) | > 100 µM (inactive) | > 100 µM (inactive) | > 10 µM (inactive) | > 100 µM (inactive) |  | > 100 µM (inactive) | > 100 µM (inactive) | > 100 µM (inactive) |  |  | > 100 µM (inactive) | > 100 µM (inactive) |  | > 100 µM (inactive) | > 100 µM (inactive) | > 100 µM (inactive) | > 100 µM (inactive) |  | > 100 µM (inactive) | 
Cc1c2c(c(C)c3c1[nH]c1ccccc13)CN(C)CC2 | 19.5 µM (inactive) | 17.9 µM (inactive) | 49.4 µM (inactive) |  | 15.3 | 23.2 µM (inactive) | 16.6 µM (inactive) | 14.9 µM (inactive) |  |  | 16.7 µM (inactive) | 17 µM (inactive) | 23.4 µM (inactive) | 17.6 µM (inactive) | 20.3 µM (inactive) | 17.3 µM (inactive) | 13.3 µM (inactive) | 20.6 µM (inactive) | 12.1 µM (inactive) | 18 µM (inactive)
CCOC(=O)C1N(S(=O)(=O)c2ccc(C)cc2)CCC12C(c1ccc(OC)cc1)NC1CCCCC12 (stereo not given) | > 100 µM (inactive) | > 100 µM (inactive) | > 100 µM (inactive) | > 100 µM (inactive) | > 100 | 98.6 µM (inactive) | 22.9 µM (inactive) | > 100 µM (inactive) |  |  | 67.3 µM (inactive) | > 100 µM (inactive) | 27.2 µM (inactive) | 44.4 µM (inactive) | > 100 µM (inactive) |  | > 100 µM (inactive) | > 100 µM (inactive) | 70.8 µM (inactive) | > 100 µM (inactive)
Cc1ccc(C(=O)OCC(C)C)cc1/N=N/N(C)C |  | > 79.4 µM (inactive) | > 100 µM (inactive) | > 100 µM (inactive) | 48.1 | 67.8 µM (inactive) | > 65 µM (inactive) | > 100 µM (inactive) | 30.9 µM (inactive) | > 100 µM (inactive) | > 100 µM (inactive) | 35.2 µM (inactive) | > 71.8 µM (inactive) |  | 42.9 µM (inactive) | > 100 µM (inactive) | > 60.4 µM (inactive) | > 65 µM (inactive) | 65.6 µM (inactive) | > 100 µM (inactive)
Cc1cc(C)cc(NC(N)=S)c1 | > 100 µM (inactive) | > 100 µM (inactive) | 19.1 µM (inactive) | > 100 µM (inactive) | 17.9 | > 100 µM (inactive) | > 100 µM (inactive) | > 100 µM (inactive) |  |  | > 100 µM (inactive) | > 100 µM (inactive) | > 100 µM (inactive) | 20.2 µM (inactive) | 53.7 µM (inactive) | > 100 µM (inactive) | > 100 µM (inactive) | > 100 µM (inactive) | 38.6 µM (inactive) | > 100 µM (inactive)
O=S(=O)(O)c1cc(O)c2c(O)c(/N=N/c3ccc(/C=C/c4ccc(/N=N/c5c(S(=O)(=O)O)cc6cc(S(=O)(=O)O)cc(O)c6c5O)cc4S(=O)(=O)O)c(S(=O)(=O)O)c3)c(S(=O)(=O)O)cc2c1 | > 100 µM (inactive) | > 100 µM (inactive) | > 100 µM (inactive) | > 100 µM (inactive) | > 100 | > 100 µM (inactive) | 95.7 µM (inactive) | > 100 µM (inactive) |  |  | > 100 µM (inactive) | > 100 µM (inactive) | > 100 µM (inactive) | > 100 µM (inactive) | > 100 µM (inactive) | > 100 µM (inactive) | > 100 µM (inactive) | > 100 µM (inactive) | > 100 µM (inactive) | > 100 µM (inactive)
CCOC(=O)C(Cc1ccc([N+](=O)[O-])cc1)NC(=O)CC1c2ccccc2-c2ccccc21 (stereo not given) | > 100 µM (inactive) | 81.8 µM (inactive) | > 100 µM (inactive) | > 100 µM (inactive) | > 100 | 35.2 µM (inactive) | 23.7 µM (inactive) | > 100 µM (inactive) |  |  | 20.6 µM (inactive) | > 100 µM (inactive) | 55 µM (inactive) | 18 µM (inactive) | 50.7 µM (inactive) | 45.1 µM (inactive) |  | 67.8 µM (inactive) | 43.9 µM (inactive) | > 100 µM (inactive)
Cc1cn(Cc2ccccc2CCO)c(=S)[nH]c1=O | > 100 µM (inactive) | > 100 µM (inactive) | > 100 µM (inactive) | > 100 µM (inactive) | > 100 | > 100 µM (inactive) | > 100 µM (inactive) | > 100 µM (inactive) |  |  | > 100 µM (inactive) | > 100 µM (inactive) | > 100 µM (inactive) | > 100 µM (inactive) | > 100 µM (inactive) | > 100 µM (inactive) | > 100 µM (inactive) | > 100 µM (inactive) | > 100 µM (inactive) | > 100 µM (inactive)
NC(=O)/C=C/c1c[nH]c2nccnc12 | 2.58 µM (inactive) | 4.41 µM (inactive) | 0.656 µM (active) | 3.15 µM (inactive) | 3.27 | 2.94 µM (inactive) | 3.52 µM (inactive) | 0.103 µM (active) | 3.27 µM (inactive) | 3.81 µM (inactive) | 0.726 µM (active) | 7.13 µM (inactive) | 4.09 µM (inactive) | 1.99 µM (inactive) | 2.05 µM (inactive) | 1.79 µM (inactive) | 2.25 µM (inactive) | 1.01 µM (active) | 4.85 µM (inactive) | 2.76 µM (inactive)
COc1cc(C2c3cc4c(cc3[C@@H](Nc3ccc(F)cc3)C3COC(=O)[C@H]23)OCO4)cc(OC)c1O (stereo not given in full) | 1.89 µM (inactive) | 0.224 µM (active) |  | 3.76 µM (inactive) | 3.56 | 0.635 µM (active) | 2.91 µM (inactive) | 6.67 µM (inactive) | 0.408 µM (active) | 8.93 µM (inactive) | 2.48 µM (inactive) | 2.88 µM (inactive) | 15.1 µM (inactive) | 3.12 µM (inactive) | 3.17 µM (inactive) | 6.49 µM (inactive) | 1.78 µM (inactive) | 1.57 µM (inactive) | 1.09 µM (active) | 0.841 µM (active)
CC(C)(c1ccccc1)c1ccc(Oc2ccc(C#N)c(C#N)c2)cc1 | > 10 µM (inactive) | 27 µM (inactive) | 56.5 µM (inactive) | 46.1 µM (inactive) | > 10 | > 10 µM (inactive) | 10.3 µM (inactive) | 24.4 µM (inactive) |  |  | > 10 µM (inactive) | 9.06 µM (inactive) | 7.82 µM (inactive) | 92.9 µM (inactive) | 43.5 µM (inactive) | > 10 µM (inactive) | 20.7 µM (inactive) | > 10 µM (inactive) | 99.8 µM (inactive) | > 10 µM (inactive)
Cc1cc(C)nc(NS(=O)(=O)c2ccc(NC(=O)c3cccc4c(Nc5ccc(S(=O)(=O)Nc6nc(C)cc(C)n6)cc5)c5ccc(Cl)cc5nc34)cc2)n1 | 45 µM (inactive) | 41.1 µM (inactive) | 27.5 µM (inactive) | 29.5 µM (inactive) | 75.5 | 24.4 µM (inactive) | 28 µM (inactive) | 33 µM (inactive) |  |  | 16.4 µM (inactive) | 15.6 µM (inactive) | 35.6 µM (inactive) | 78.3 µM (inactive) | 28.6 µM (inactive) | 34 µM (inactive) | 20.1 µM (inactive) | 35.5 µM (inactive) | 27.5 µM (inactive) | 23.1 µM (inactive)
